Test results published in patent US20240025884A1 (Dong-A ST Co., Ltd., priority 2022, published 2024).

Molecular target: GCN2 (Homo sapiens (Human), UniProt Q9P2K8)
Assay: GCN2 Biochemical Assay (TR-FRET, GFP-eIF2S1 substrate phosphorylation)
Conditions: read-out: IC50 (GCN2 Inhibitory Activity)
How it was run: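 TR-FRET readout (Ex 340, Em 490/520 nm) after 2–3 h with Tb-labelled phospho-eIF2S1 antibody in stop mix, following a 70 min room-temperature kinase step. Reaction: in-house GCN2, GFP-eIF2S1, ATP, tRNA in Tris pH 7.5 (2× stocks 1.6 nM, 50 nM, 0.2 mM); compounds tested at 10 concentrations, with a phospho-substrate artifact counter-plate.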

Sequence of GCN2 (Q9P2K8 whole entry): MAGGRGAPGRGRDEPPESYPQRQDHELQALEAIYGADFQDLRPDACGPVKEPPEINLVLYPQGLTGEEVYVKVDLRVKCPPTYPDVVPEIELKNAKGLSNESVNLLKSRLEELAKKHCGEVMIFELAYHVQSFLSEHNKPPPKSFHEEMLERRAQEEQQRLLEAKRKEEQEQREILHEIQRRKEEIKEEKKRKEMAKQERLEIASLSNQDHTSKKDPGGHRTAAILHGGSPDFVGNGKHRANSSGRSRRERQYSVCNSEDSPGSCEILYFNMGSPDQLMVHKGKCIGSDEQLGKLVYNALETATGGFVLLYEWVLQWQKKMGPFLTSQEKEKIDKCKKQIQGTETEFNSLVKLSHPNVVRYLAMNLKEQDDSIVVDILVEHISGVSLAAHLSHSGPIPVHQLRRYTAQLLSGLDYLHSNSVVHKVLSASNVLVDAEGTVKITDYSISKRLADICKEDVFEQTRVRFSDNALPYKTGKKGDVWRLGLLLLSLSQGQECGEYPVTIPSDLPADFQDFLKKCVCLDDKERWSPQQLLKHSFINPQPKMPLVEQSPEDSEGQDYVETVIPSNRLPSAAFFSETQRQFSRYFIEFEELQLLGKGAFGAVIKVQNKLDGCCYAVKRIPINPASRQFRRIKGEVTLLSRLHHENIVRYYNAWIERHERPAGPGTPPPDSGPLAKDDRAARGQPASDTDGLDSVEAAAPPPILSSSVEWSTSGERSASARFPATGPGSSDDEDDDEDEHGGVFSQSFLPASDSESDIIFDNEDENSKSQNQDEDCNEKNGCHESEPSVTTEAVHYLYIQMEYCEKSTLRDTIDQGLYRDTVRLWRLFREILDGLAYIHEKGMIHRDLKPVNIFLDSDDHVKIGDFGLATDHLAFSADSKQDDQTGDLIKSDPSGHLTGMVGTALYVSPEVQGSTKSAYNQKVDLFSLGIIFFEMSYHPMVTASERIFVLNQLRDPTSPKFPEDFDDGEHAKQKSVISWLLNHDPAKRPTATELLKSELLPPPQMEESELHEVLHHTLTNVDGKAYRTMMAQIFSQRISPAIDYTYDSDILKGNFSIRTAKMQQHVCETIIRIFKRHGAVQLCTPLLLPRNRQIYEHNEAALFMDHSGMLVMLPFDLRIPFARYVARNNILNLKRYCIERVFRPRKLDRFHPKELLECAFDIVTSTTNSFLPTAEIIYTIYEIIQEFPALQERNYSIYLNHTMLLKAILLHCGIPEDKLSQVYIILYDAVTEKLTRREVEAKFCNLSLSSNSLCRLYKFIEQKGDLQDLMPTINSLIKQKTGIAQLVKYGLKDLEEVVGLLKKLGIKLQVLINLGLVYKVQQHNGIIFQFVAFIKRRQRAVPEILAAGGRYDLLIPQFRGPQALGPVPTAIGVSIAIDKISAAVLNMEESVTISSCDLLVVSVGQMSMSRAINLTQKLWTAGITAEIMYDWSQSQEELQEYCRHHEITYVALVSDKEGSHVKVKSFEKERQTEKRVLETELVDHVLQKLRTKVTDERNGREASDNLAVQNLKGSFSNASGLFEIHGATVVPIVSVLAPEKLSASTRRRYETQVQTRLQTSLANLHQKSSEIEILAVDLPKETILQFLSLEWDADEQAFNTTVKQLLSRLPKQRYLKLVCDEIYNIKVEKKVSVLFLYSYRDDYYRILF

**Q.** Which IC50 does the source give for `Cc1cnc(Nc2cc(C)n(C)n2)nc1-c1c[nH]c2c(NC(=O)CN3CC[C@H](Oc4cc(C(=O)NC5CC5)on4)C3)cccc12` [Example 124, (S)-N-cyclopropyl-3-((1-(2-((3-(2-((1,5-dimethyl-1H-pyrazol-3-yl)amino)-5-methylpyrimidin-4-yl)-1H-indol-7-yl)amino)-2-oxoethyl)pyrrolidin-3-yl)oxy)isoxazole-5-carboxamide] here?
**A.** Its IC50 is less than 10 nM.

**Q.** `Cc1cnc(Nc2cc(C)n(C)n2)nc1-c1c[nH]c2c(NC(=O)CN3CC[C@H](Oc4cc(C(=O)N(C)C)on4)C3)cccc12` [Example 125, (S)-3-((1-(2-((3-(2-((1,5-dimethyl-1H-pyrazol-3-yl)amino)-5-methylpyrimidin-4-yl)-1H-indol-7-yl)amino)-2-oxoethyl)pyrrolidin-3-yl)oxy)-N,N-dimethylisoxazole-5-carboxamide] was tested. Which IC50 did it give?
**A.** The IC50 was 10 to 100 nM.

**Q.** `Cc1cnc(Nc2cc(C)n(C)n2)nc1-c1c[nH]c2c(NC(=O)CN3CC[C@H](Oc4ncc(C(=O)NC5CC5)o4)C3)cccc12` [Example 126, (S)-N-cyclopropyl-2-((1-(2-((3-(2-((1,5-dimethyl-1H-pyrazol-3-yl)amino)-5-methylpyrimidin-4-yl)-1H-indol-7-yl)amino)-2-oxoethyl)pyrrolidin-3-yl)oxy)oxazole-5-carboxamide] was tested. Which IC50 did it give?
**A.** Its IC50 is 10 to 100 nM.

**Q.** Which IC50 does the source give for `Cc1cnc(Nc2cc(C)n(C)n2)nc1-c1c[nH]c2c(NC(=O)CN3CC[C@H](Oc4nc(C(=O)NC5CC5)co4)C3)cccc12` [Example 127, (S)-N-cyclopropyl-2-((1-(2-((3-(2-((1,5-dimethyl-1H-pyrazol-3-yl)amino)-5-methylpyrimidin-4-yl)-1H-indol-7-yl)amino)-2-oxoethyl)pyrrolidin-3-yl)oxy)oxazole-4-carboxamide] here?
**A.** The IC50 was 10 to 100 nM.

**Q.** With `Cc1cnc(Nc2cc(C)n(C)n2)nc1-c1c[nH]c2c(NC(=O)CN3CC[C@H](Oc4nccc(C(=O)O)n4)C3)cccc12` [Example 128, (S)-2-((1-(2-((3-(2-((1,5-dimethyl-1H-pyrazol-3-yl)amino)-5-methylpyrimidin-4-yl)-1H-indol-7-yl)amino)-2-oxoethyl)pyrrolidin-3-yl)oxy)pyrimidine-4-carboxylic acid] as the molecule, how does the IC50 read?
**A.** The IC50 was 10 to 100 nM.

**Q.** How did the IC50 turn out when `Cc1cnc(Nc2cc(C)n(C)n2)nc1-c1c[nH]c2c(NC(=O)CN3CC[C@H](Oc4nccc(C(N)=O)n4)C3)cccc12` [Example 129, (S)-2-((1-(2-((3-(2-((1,5-dimethyl-1H-pyrazol-3-yl)amino)-5-methylpyrimidin-4-yl)-1H-indol-7-yl)amino)-2-oxoethyl)pyrrolidin-3-yl)oxy)pyrimidine-4-carboxamide] was run?
**A.** The IC50 was 10 to 100 nM.

**Q.** `CNC(=O)c1ccnc(O[C@H]2CCN(CC(=O)Nc3cccc4c(-c5nc(Nc6cc(C)n(C)n6)ncc5C)c[nH]c34)C2)n1` [Example 130, (S)-2-((1-(2-((3-(2-((1,5-dimethyl-1H-pyrazol-3-yl)amino)-5-methylpyrimidin-4-yl)-1H-indol-7-yl)amino)-2-oxoethyl)pyrrolidin-3-yl)oxy)-N-methylpyrimidine-4-carboxamide] was tested. Which IC50 did it give?
**A.** Its IC50 is 10 to 100 nM.

**Q.** Which IC50 does the source give for `Cc1cnc(Nc2cc(C)n(C)n2)nc1-c1c[nH]c2c(NC(=O)CN3CC[C@H](Oc4nccc(C(=O)N(C)C)n4)C3)cccc12` [Example 131, (S)-2-((1-(2-((3-(2-((1,5-dimethyl-1H-pyrazol-3-yl)amino)-5-methylpyrimidin-4-yl)-1H-indol-7-yl)amino)-2-oxoethyl)pyrrolidin-3-yl)oxy)-N,N-dimethylpyrimidine-4-carboxamide] here?
**A.** Its IC50 is 10 to 100 nM.

**Q.** How did the IC50 turn out when `Cc1cnc(Nc2cc(C)n(C)n2)nc1-c1c[nH]c2c(NC(=O)CN3CC[C@H](Oc4cncc(C(N)=O)n4)C3)cccc12` [Example 132, (S)-6-((1-(2-((3-(2-((1,5-dimethyl-1H-pyrazol-3-yl)amino)-5-methylpyrimidin-4-yl)-1H-indol-7-yl)amino)-2-oxoethyl)pyrrolidin-3-yl)oxy)pyrazine-2-carboxamide] was run?
**A.** The IC50 was less than 10 nM.

**Q.** With `CNC(=O)c1cncc(O[C@H]2CCN(CC(=O)Nc3cccc4c(-c5nc(Nc6cc(C)n(C)n6)ncc5C)c[nH]c34)C2)n1` [Example 133, (S)-6-((1-(2-((3-(2-((1,5-dimethyl-1H-pyrazol-3-yl)amino)-5-methylpyrimidin-4-yl)-1H-indol-7-yl)amino)-2-oxoethyl)pyrrolidin-3-yl)oxy)-N-methylpyrazine-2-carboxamide] as the molecule, how does the IC50 read?
**A.** The IC50 was less than 10 nM.

**Q.** How did the IC50 turn out when `Cc1cnc(Nc2cc(C)n(C)n2)nc1-c1c[nH]c2c(NC(=O)CN3CC[C@H](Oc4ncnc(N)n4)C3)cccc12` [Example 134, (S)-2-(3-((4-amino-1,3,5-triazin-2-yl)oxy)pyrrolidin-1-yl)-N-(3-(2-((1,5-dimethyl-1H-pyrazol-3-yl)amino)-5-methylpyrimidin-4-yl)-1H-indol-7-yl)acetamide] was run?
**A.** Its IC50 is less than 10 nM.

**Q.** `CNc1ncnc(O[C@H]2CCN(CC(=O)Nc3cccc4c(-c5nc(Nc6cc(C)n(C)n6)ncc5C)c[nH]c34)C2)n1` [Example 135, (S)-N-(3-(2-((1,5-dimethyl-1H-pyrazol-3-yl)amino)-5-methylpyrimidin-4-yl)-1H-indol-7-yl)-2-(3-((4-(methylamino)-1,3,5-triazin-2-yl)oxy)pyrrolidin-1-yl)acetamide] was tested. Which IC50 did it give?
**A.** Its IC50 is less than 10 nM.

**Q.** `Cc1cnc(Nc2cc(C)n(C)n2)nc1-c1c[nH]c2c(NC(=O)CN3CC[C@H](Oc4ncnc(N(C)C)n4)C3)cccc12` [Example 136, (S)-N-(3-(2-((1,5-dimethyl-1H-pyrazol-3-yl)amino)-5-methylpyrimidin-4-yl)-1H-indol-7-yl)-2-(3-((4-(dimethylamino)-1,3,5-triazin-2-yl)oxy)pyrrolidin-1-yl)acetamide] was tested. Which IC50 did it give?
**A.** The IC50 was less than 10 nM.

**Q.** With `Cc1cnc(Nc2cc(C)n(C)n2)nc1-c1c[nH]c2c(NC(=O)CN3CC[C@H](Oc4ncnc(NC5CC5)n4)C3)cccc12` [Example 137, (S)-2-(3-((4-(cyclopropylamino)-1,3,5-triazin-2-yl)oxy)pyrrolidin-1-yl)-N-(3-(2-((1,5-dimethyl-1H-pyrazol-3-yl)amino)-5-methylpyrimidin-4-yl)-1H-indol-7-yl)acetamide] as the molecule, how does the IC50 read?
**A.** The IC50 was less than 10 nM.

**Q.** For `Cc1cnc(Nc2cc(C)n(C)n2)nc1-c1c[nH]c2c(NC(=O)CN3CC[C@H](Oc4nc(N)nc(N)n4)C3)cccc12` [Example 138, (S)-2-(3-((4,6-diamino-1,3,5-triazin-2-yl)oxy)pyrrolidin-1-yl)-N-(3-(2-((1,5-dimethyl-1H-pyrazol-3-yl)amino)-5-methylpyrimidin-4-yl)-1H-indol-7-yl)acetamide], which IC50 is on record?
**A.** The IC50 was less than 10 nM.

**Q.** With `Cc1cnc(Nc2cc(C)n(C)n2)nc1-c1c[nH]c2c(NC(=O)CN3CC[C@H](Oc4nc(N)nc(N5CCCC5)n4)C3)cccc12` [Example 139, (S)-2-(3-((4-amino-6-(pyrrolidin-1-yl)-1,3,5-triazin-2-yl)oxy)pyrrolidin-1-yl)-N-(3-(2-((1,5-dimethyl-1H-pyrazol-3-yl)amino)-5-methylpyrimidin-4-yl)-1H-indol-7-yl)acetamide] as the molecule, how does the IC50 read?
**A.** The IC50 was less than 10 nM.

**Q.** Which IC50 does the source give for `Cc1cnc(Nc2cc(C)n(C)n2)nc1-c1c[nH]c2c(NC(=O)CN3CC[C@H](Oc4cc(N)ncn4)C3)cccc12` [Example 140, (S)-2-(3-((6-aminopyrimidin-4-yl)oxy)pyrrolidin-1-yl)-N-(3-(2-((1,5-dimethyl-1H-pyrazol-3-yl)amino)-5-methylpyrimidin-4-yl)-1H-indol-7-yl)acetamide] here?
**A.** Its IC50 is less than 10 nM.

**Q.** For `CNc1cc(O[C@H]2CCN(CC(=O)Nc3cccc4c(-c5nc(Nc6cc(C)n(C)n6)ncc5C)c[nH]c34)C2)ncn1` [Example 141, (S)-N-(3-(2-((1,5-dimethyl-1H-pyrazol-3-yl)amino)-5-methylpyrimidin-4-yl)-1H-indol-7-yl)-2-(3-((6-(methylamino)pyrimidin-4-yl)oxy)pyrrolidin-1-yl)acetamide], which IC50 is on record?
**A.** The IC50 was less than 10 nM.

**Q.** `CCNc1cc(O[C@H]2CCN(CC(=O)Nc3cccc4c(-c5nc(Nc6cc(C)n(C)n6)ncc5C)c[nH]c34)C2)ncn1` [Example 142, (S)-N-(3-(2-((1,5-dimethyl-1H-pyrazol-3-yl)amino)-5-methylpyrimidin-4-yl)-1H-indol-7-yl)-2-(3-((6-(ethylamino)pyrimidin-4-yl)oxy)pyrrolidin-1-yl)acetamide] was tested. Which IC50 did it give?
**A.** The IC50 was less than 10 nM.

**Q.** How did the IC50 turn out when `CCCNc1cc(O[C@H]2CCN(CC(=O)Nc3cccc4c(-c5nc(Nc6cc(C)n(C)n6)ncc5C)c[nH]c34)C2)ncn1` [Example 143, (S)-N-(3-(2-((1,5-dimethyl-1H-pyrazol-3-yl)amino)-5-methylpyrimidin-4-yl)-1H-indol-7-yl)-2-(3-((6-(propylamino)pyrimidin-4-yl)oxy)pyrrolidin-1-yl)acetamide] was run?
**A.** Its IC50 is less than 10 nM.

**Q.** How did the IC50 turn out when `CCCCNc1cc(O[C@H]2CCN(CC(=O)Nc3cccc4c(-c5nc(Nc6cc(C)n(C)n6)ncc5C)c[nH]c34)C2)ncn1` [Example 144, (S)-2-(3-((6-(butylamino)pyrimidin-4-yl)oxy)pyrrolidin-1-yl)-N-(3-(2-((1,5-dimethyl-1H-pyrazol-3-yl)amino)-5-methylpyrimidin-4-yl)-1H-indol-7-yl)acetamide] was run?
**A.** Its IC50 is less than 10 nM.

**Q.** How did the IC50 turn out when `Cc1cnc(Nc2cc(C)n(C)n2)nc1-c1c[nH]c2c(NC(=O)CN3CC[C@H](Oc4cc(NCCO)ncn4)C3)cccc12` [Example 145, (S)-N-(3-(2-((1,5-dimethyl-1H-pyrazol-3-yl)amino)-5-methylpyrimidin-4-yl)-1H-indol-7-yl)-2-(3-((6-((2-hydroxyethyl)amino)pyrimidin-4-yl)oxy)pyrrolidin-1-yl)acetamide] was run?
**A.** The IC50 was less than 10 nM.

**Q.** For `Cc1cnc(Nc2cc(C)n(C)n2)nc1-c1c[nH]c2c(NC(=O)CN3CC[C@H](Oc4cc(NCCCO)ncn4)C3)cccc12` [Example 146, (S)-N-(3-(2-((1,5-dimethyl-1H-pyrazol-3-yl)amino)-5-methylpyrimidin-4-yl)-1H-indol-7-yl)-2-(3-((6-((3-hydroxypropyl)amino)pyrimidin-4-yl)oxy)pyrrolidin-1-yl)acetamide], which IC50 is on record?
**A.** Its IC50 is less than 10 nM.

**Q.** Which IC50 does the source give for `COCCNc1cc(O[C@H]2CCN(CC(=O)Nc3cccc4c(-c5nc(Nc6cc(C)n(C)n6)ncc5C)c[nH]c34)C2)ncn1` [Example 147, (S)-N-(3-(2-((1,5-dimethyl-1H-pyrazol-3-yl)amino)-5-methylpyrimidin-4-yl)-1H-indol-7-yl)-2-(3-((6-((2-methoxyethyl)amino)pyrimidin-4-yl)oxy)pyrrolidin-1-yl)acetamide] here?
**A.** The IC50 was less than 10 nM.
